Data on three substances can be found in US7153841B2, “Metal substituted non-centrosimmetrical phthalocyanine analogues, their preparation and use in photodynamic therapy and in vivo diagnostic” (L. Molteni & C. Dei Fratelli Alitti Societa Di Esercizio …, priority 2001, dated 2006).

What all share (format): cell-based
The target of data set [1] is T1, repeat D of type III FN like of human Tenascin (TN) (Homo sapiens, UniProt P24821).
T1 construct: determined by immunohystochemistry on human fibroblasts (GM6114); endogenous in cells; host or cells: human fibroblasts (GM6114)
T1 sequence (P24821 23-2201): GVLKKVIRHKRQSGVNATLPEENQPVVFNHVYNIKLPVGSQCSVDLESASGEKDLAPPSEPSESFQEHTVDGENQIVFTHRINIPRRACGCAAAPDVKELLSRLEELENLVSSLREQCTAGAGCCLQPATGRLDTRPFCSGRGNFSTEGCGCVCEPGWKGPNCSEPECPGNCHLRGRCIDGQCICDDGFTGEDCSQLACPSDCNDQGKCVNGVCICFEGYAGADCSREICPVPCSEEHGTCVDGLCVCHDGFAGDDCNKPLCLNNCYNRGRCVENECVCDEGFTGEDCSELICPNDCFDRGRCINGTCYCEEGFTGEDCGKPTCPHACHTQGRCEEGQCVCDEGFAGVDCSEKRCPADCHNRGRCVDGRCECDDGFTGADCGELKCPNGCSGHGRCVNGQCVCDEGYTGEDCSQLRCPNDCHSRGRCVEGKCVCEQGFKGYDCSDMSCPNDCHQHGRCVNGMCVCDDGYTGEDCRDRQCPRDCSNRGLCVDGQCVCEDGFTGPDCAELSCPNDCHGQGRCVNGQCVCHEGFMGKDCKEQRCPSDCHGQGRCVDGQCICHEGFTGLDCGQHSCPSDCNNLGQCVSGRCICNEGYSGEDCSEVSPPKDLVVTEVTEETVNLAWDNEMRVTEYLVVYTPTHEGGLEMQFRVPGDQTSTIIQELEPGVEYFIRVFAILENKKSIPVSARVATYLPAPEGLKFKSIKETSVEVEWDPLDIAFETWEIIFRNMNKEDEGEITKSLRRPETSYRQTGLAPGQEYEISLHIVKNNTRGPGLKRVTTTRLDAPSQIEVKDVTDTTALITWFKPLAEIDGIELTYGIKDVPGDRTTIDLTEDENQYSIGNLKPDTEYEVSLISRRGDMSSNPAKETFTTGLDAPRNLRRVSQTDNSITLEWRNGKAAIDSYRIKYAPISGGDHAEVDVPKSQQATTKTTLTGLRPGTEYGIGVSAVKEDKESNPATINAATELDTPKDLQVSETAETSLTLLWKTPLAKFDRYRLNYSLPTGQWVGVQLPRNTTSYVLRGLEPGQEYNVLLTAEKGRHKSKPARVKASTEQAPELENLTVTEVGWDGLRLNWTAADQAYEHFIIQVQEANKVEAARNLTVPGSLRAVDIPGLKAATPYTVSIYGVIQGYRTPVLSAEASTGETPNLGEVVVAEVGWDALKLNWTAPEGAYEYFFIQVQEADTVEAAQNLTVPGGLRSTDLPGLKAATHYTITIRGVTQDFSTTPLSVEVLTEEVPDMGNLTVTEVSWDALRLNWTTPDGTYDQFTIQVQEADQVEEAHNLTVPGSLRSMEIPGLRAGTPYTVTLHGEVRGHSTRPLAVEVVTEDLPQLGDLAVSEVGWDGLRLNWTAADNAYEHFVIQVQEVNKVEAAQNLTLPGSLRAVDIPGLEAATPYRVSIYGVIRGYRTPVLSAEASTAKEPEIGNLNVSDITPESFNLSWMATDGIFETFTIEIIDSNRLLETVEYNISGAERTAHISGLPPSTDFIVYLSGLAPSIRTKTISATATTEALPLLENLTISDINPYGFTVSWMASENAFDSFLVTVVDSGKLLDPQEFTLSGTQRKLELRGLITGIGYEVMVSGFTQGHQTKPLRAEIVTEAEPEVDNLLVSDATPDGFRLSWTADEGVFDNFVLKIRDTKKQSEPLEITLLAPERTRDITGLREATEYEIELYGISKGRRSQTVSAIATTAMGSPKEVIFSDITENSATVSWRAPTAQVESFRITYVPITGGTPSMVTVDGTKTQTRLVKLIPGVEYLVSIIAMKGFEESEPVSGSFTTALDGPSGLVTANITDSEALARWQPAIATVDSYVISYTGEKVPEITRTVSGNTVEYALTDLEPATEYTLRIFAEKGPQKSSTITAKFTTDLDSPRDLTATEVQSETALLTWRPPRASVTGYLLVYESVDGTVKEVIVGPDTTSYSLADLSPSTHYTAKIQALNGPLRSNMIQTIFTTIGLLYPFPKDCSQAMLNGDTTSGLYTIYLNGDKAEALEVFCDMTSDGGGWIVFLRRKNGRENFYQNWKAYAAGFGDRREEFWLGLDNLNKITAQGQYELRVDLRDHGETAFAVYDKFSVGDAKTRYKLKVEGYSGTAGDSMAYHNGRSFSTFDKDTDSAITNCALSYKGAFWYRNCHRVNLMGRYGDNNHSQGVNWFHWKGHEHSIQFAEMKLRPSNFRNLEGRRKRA
Kind of data set: Binding specificity of labelled antibody by immunohystochemistry on human fibroblasts (GM6114). Conditions: shown by immunohystochemistry experiments. An excerpt: Monoclonal Antibody α-D specific for the repeat D of type III FN like of human Tenascin (TN) (Balza et al. FEBS, 332,39 1993) has been labelled by using the compound of Ex. 4.
The labelling procedure has been carried out with the monoclonal bound to the Sepharose 4b immobilised antigen, represented from the recombinant TN containing repeats B,C,D type III FN-like.

The test system of data set [2] is human fibroblasts. Put plainly: Lack of non specific toxicity on human fibroblasts, with or without red light. Conditions: DMEM 10% FCS, up to 40 μM. As to the method: The lack of non specific toxicity has been assessed by using human fibroblasts cultured for six days. Aliquots of the compound according to Ex. 4 at various concentrations have been added to cells in DMEM 10% FCS. After treatment the cell were irradiated for 10 min with red light (Intralux 4000 equipped with filter BP700/100Chroma Technology Corp.). In a parallel experiment cells were treated with the same amounts of compound of Ex. 4, however no light was provided.

Data set [3] relates to C. albicans. Put plainly: Photoinactivation of C. albicans (CFU vs. concentration, FIG. 1). An excerpt:
FIG. 1 represents the variation of the colony forming units (CFU) of C. albicans vs. the concentration (μM) of the compounds according to Examples 7 and 8,indicated in the FIGURE as MRLP 090 and MRLP 091 respectively.
The following example refer to the activity against C. albicans.

Turning to “2-[(4-hydroxycarbonyl)phenoxy]-1(4),8(11),15(18),22(25)-tri[2 -(morfolin-1-yl) ethoxy] zinc(II)phthalocyanine [Example 4]”, in data set [1], the “aggregation or protein denaturation of the antibody on labelling” value is reported as “does not cause aggregation to occur or protein denaturation”. Further, the “mortality or morphology in comparison to not treated-not irradiated cells” value in data set [2] (irradiated 10 min with red light) and in data set [2] (no light provided) was “No differences in mortality or morphology” in each case.
For the substance “2-[(4-hydroxycarbonyl)phenoxy]-8(11),15(18),22(25)-tri[3-(trimethylammonium) phenoxy]zinc(II) phthalocyanine triiodide [Example 8]”, the “photoinactivation of C. albicans (variation of colony forming units vs. concentration, μM)” value in data set [3] is given as “photoinactivation”.
Turning to “2-[(4-hydroxycarbonyl)phenoxy]-9(10),16(17),23(24)-tri[3-(trimethylammonium) phenoxy]zinc(II)phthalocyanine triiodide [Example 7]”, in data set [3], the “photoinactivation of C. albicans (variation of colony forming units vs. concentration, μM)” value is reported as “photoinactivation”.
